Reference: patent US8298781B2, “Compositions and methods for characterizing and regulating olfactory sensation” (Duke University, priority 2007, dated 2012)

System: human subjects
Assay: Human olfactory psychophysics: valence rating by OR7D4 genotype
Type: in vivo
Conditions: for valence rating, OR7D4 RT/WM vs RT/RT subjects: 7-point scale, two concentrations pooled; for valence rating, RT/S84N subjects vs RT/RT controls: N=7 RT/S84N; for valence rating of OR7D4 WM/WM subjects relative to solvent propylene glycol: N=10 WM/WM; for valence rating, RT/P79L subjects vs RT/RT controls: N=30 RT/P79L
Method: Human olfactory psychophysics. All human subjects gave informed consent to participate in this study and were tested in a well-ventilated room. Normal human subjects (n=412; 218 female, 194 male; median age 34, age range 19-75) were pre-screened to exclude pregnant women and those with medical conditions causing general impairment of the sense of smell. All subjects completed two replicates of the test separated by at least 4 days. Odors were presented in amber vials as previously described (see, e.g., Keller, A., et al., Nat Neurosci 7, 337-338 (2004); herein incorporated by reference in its entirety) using bar-coded symbols to ensure that subjects were blind to the identity of all odors. The intensity and valence of 66 odors at two concentrations (“high” and “low”) and two solvents was rated using a 7-point scale. Thresholds were calculated using the single staircase method with seven reversals (see, e.g., Doty, R. L., et al., Chem Senses 20, 645-656 (1995); Doty, R. L. & Laing, D. G. in Handbook of Olfaction and Gustation (ed. Doty, R. L.) pp. 203-228 (Marcel Dekker, Inc., New York, 2003); each of which are herein incorporated by reference in their entireties). Threshold tests included both steroids as binary dilutions from […] (binary dilution 6) to 1: 134,217,728 (binary dilution 27). Subjects who could not reliably distinguish a 1:64 dilution of androstenone and androstadienone from solvent were operationally defined as anosmic to these odorous steroids, although it could not be excluded that these subjects could detect higher concentrations of these steroids (see, e.g., Bremner, E. A., et al., Chem Senses 28, 423-432 (2003); herein incorporated by reference in its entirety). Odor profiling used the method established by Dravnieks, et al. (see, e.g., Dravnieks, A., et al., Science 218, 799-801 (1982); herein incorporated by reference in its entirety).
Stimuli for olfactory psychophysics. All odors were presented as one ml of an odor dilution in either propylene glycol or paraffin oil in 20 ml amber glass vials. All of these compounds were used in the intensity and valence rating portion of the smell test.
Olfactory ratings. The intensity and valence of 66 odors were rated at two different concentrations (high and low) and the intensity and valence of the two solvents (paraffin oil and propylene glycol) was rated three times. Prior to these ratings, six stimuli that represented the spectrum of intensity and valence of the stimuli used in the study were presented to allow the subjects to calibrate the usage of the scale. The subjects were unaware that the six first stimuli served that purpose. After the rating of the 66 odors at two concentrations and the rating of the solvents, 15 stimuli that were presented earlier in the experiment were repeated to test for the effect of adaptation and olfactory fatigue on the ratings. The subjects were not aware that the last 15 stimuli served this purpose. These 15 stimuli and the six first stimuli were not included in the analysis presented here. […] The 15 control stimuli and their concentrations were as follows:
In addition there was a button on the screen labeled “I can't smell anything” and a button labeled “Don't Know”. If the “Don't Know” button was pressed, no rating was recorded. If the “I can't smell anything” button was pressed, a 0 was recorded for the intensity rating and no rating was recorded for the valence rating. The other ratings were transformed according to the following scheme:
• Extremely Weak=1 • Very Weak=2 • Slightly Weak=3 • Neither Weak nor Strong=4 • Slightly Strong=5 • Very Strong=6 • Extremely Strong=7 Valence Rating • Extremely Unpleasant=1 • Very Unpleasant=2 • Slightly Unpleasant=3 • Neither Unpleasant nor Pleasant=4 • Slightly Pleasant=5 • Very Pleasant=6 • Extremely Pleasant=7
Averages for the ratings of the different genotypes were calculated. […]

| SMILES | valence rating, OR7D4 RT/WM vs RT/RT subjects | valence rating, RT/S84N subjects vs RT/RT controls | valence rating of OR7D4 WM/WM subjects relative to solvent propylene glycol | valence rating, RT/P79L subjects vs RT/RT controls |
| --- | --- | --- | --- | --- |
| C[C@@]12C=CC[C@H]1[C@@H]1CCC3=CC(=O)CC[C@]3(C)[C@H]1CC2 [androstadienone, androsta-4,16-dien-3-one] | more pleasant | less pleasant | more unpleasant than the solvent | more pleasant |
| C[C@]12CCC(=O)C[C@@H]1CC[C@@H]1[C@@H]2CC[C@]2(C)C=CC[C@@H]12 [androstenone, 5α-androst-16-en-3-one] | more pleasant | less pleasant | more unpleasant than the solvent | more pleasant |
